The source made the active and inactive calls.
How the values were obtained:
Protein Rev = Protein Rev (Human immunodeficiency virus type 1 group M subtype B (isolate HXB2)(HIV-1), UniProt P04618); assay: blockers of HIV Rev/RRE RNA complex – biochemical, fluorescence polarization, HIV-1, dose response (AID 434976); design: species or system Human immunodeficiency virus 1
[1] = target: Female germline-specific tumor suppressor gld-1 (Caenorhabditis elegans, UniProt Q17339); assay: blockers of GLD-1/TGE RNA complex formation – biochemical, fluorescence polarization, C. elegans, dose response (AID 2802);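 note: fluorescence polarization of labeled TGE RNA bound by purified gld-1 protein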
[2] = target: T1, RNA-binding protein pos-1 (Caenorhabditis elegans, UniProt G5EF15); assay: disruptors of C. elegans POS-1 RNA interaction – biochemical, fluorescence polarization, dose response (AID 1964);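 note: purified POS-1 fused to maltose binding protein made in E. coli; potency of compounds blocking POS-1 binding to fluorescent RNA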
T1 sequence (G5EF15 whole entry): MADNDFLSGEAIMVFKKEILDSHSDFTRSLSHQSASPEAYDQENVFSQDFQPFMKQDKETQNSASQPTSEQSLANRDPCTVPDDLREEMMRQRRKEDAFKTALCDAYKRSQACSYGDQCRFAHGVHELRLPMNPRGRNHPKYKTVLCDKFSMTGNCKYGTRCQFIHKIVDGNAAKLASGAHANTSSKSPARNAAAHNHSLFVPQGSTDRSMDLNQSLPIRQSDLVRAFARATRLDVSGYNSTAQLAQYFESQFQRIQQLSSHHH

[3] = target: T2, Zinc finger protein mex-5 (Caenorhabditis elegans, UniProt Q9XUB2); assay: potency of MEX-5 RNA-binding blockers – biochemical, C. elegans, fluorescence polarization, dose response (AID 1960)
T2 sequence (Q9XUB2 whole entry): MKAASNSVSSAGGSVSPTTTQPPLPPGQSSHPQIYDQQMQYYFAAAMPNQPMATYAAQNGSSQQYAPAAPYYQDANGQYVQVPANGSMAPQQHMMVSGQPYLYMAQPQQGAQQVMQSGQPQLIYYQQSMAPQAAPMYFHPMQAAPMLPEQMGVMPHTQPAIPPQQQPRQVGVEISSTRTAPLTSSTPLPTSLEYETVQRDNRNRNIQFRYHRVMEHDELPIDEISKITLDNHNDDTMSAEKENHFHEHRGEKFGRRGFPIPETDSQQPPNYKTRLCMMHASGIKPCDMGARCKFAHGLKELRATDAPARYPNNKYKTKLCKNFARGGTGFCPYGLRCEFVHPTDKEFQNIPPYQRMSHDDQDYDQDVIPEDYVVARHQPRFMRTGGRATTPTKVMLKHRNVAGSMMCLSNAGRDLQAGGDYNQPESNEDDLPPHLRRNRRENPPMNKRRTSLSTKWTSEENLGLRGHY

[4] = target: Induced myeloid leukemia cell differentiation protein Mcl-1 (Homo sapiens, UniProt Q07820); assay type: functional
[5] = Luminescence Cell-Based Dose Response HTS to Identify Activators of Luciferase Translation or Activity in H4 […] Cells. [Related pubchem assays: 1829 (Project Summary), 1814 (Primary HTS)]; assay type: functional
H4 = assay: Luminescence Cell-Based Dose Response HTS to Identify Activators of 5'UTR Stem-Loop Driven Prion Protein mRNA Translation in H4 Neuroglioblastoma Cells. [Related pubchem assays: 1829 (Project Summary), 1814 (Primary HTS)]; assay type: functional; settings: Homo sapiens
[6] = target: NACHT, LRR and PYD domains-containing protein 3 (Homo sapiens, UniProt Q96P20); assay: NALP3 inhibitors in yeast, dose response, luminescent (AID 488799); assay type: functional
Caspase-3 = target: T3, Caspase-3 (Homo sapiens, UniProt P42574); assay type: functional;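 note: Dose-response selectivity test against caspase-3 for candidate inhibitors of sentrin-specific proteases (SENPs)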
T3 sequence (P42574 whole entry): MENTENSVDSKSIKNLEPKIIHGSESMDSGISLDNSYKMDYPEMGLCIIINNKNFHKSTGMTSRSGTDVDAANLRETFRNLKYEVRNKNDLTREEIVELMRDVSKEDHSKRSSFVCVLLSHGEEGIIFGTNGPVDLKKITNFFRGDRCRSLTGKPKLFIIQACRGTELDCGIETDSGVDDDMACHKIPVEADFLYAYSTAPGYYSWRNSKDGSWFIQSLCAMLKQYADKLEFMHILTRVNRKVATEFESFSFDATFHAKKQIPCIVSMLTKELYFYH

[7] = target: T4, Sentrin-specific protease 7 (Homo sapiens, UniProt Q9BQF6); assay type: functional;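 note: Luminescence-based dose-response confirmation of ultra-high-throughput screening hits, measuring inhibition of SENP7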
T4 sequence (Q9BQF6 whole entry): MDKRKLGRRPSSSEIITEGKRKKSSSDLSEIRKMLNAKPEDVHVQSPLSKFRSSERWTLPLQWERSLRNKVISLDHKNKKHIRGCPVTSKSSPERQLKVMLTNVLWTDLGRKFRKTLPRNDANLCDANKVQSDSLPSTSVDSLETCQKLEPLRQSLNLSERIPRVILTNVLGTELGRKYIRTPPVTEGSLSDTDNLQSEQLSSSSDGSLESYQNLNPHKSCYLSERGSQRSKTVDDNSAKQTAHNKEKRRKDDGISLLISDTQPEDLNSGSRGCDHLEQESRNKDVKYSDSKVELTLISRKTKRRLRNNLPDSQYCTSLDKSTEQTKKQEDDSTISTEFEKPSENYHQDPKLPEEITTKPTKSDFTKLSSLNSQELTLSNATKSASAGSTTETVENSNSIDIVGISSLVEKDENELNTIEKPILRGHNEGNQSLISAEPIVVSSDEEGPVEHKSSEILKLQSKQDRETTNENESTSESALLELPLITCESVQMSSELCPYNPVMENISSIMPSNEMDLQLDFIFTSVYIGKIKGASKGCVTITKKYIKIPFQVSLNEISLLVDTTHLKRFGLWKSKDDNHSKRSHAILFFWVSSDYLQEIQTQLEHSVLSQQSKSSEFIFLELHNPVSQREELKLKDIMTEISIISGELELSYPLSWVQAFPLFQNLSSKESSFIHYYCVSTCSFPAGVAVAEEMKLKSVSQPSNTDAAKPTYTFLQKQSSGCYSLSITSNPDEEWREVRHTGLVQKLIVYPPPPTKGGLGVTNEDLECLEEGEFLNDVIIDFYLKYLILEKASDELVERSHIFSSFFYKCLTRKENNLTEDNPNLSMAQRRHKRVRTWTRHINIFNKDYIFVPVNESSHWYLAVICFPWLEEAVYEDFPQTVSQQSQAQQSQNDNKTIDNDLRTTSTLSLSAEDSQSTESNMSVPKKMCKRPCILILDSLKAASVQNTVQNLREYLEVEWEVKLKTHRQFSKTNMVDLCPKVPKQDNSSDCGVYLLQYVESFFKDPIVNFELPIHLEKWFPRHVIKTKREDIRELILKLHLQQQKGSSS

[8] = target: T5, Sentrin-specific protease 6 (Homo sapiens, UniProt Q9GZR1); assay type: functional;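 note: Luminescence-based dose-response confirmatory assay of SENP6 inhibition, following up an ultra-high-throughput screen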
T5 sequence (Q9GZR1 whole entry): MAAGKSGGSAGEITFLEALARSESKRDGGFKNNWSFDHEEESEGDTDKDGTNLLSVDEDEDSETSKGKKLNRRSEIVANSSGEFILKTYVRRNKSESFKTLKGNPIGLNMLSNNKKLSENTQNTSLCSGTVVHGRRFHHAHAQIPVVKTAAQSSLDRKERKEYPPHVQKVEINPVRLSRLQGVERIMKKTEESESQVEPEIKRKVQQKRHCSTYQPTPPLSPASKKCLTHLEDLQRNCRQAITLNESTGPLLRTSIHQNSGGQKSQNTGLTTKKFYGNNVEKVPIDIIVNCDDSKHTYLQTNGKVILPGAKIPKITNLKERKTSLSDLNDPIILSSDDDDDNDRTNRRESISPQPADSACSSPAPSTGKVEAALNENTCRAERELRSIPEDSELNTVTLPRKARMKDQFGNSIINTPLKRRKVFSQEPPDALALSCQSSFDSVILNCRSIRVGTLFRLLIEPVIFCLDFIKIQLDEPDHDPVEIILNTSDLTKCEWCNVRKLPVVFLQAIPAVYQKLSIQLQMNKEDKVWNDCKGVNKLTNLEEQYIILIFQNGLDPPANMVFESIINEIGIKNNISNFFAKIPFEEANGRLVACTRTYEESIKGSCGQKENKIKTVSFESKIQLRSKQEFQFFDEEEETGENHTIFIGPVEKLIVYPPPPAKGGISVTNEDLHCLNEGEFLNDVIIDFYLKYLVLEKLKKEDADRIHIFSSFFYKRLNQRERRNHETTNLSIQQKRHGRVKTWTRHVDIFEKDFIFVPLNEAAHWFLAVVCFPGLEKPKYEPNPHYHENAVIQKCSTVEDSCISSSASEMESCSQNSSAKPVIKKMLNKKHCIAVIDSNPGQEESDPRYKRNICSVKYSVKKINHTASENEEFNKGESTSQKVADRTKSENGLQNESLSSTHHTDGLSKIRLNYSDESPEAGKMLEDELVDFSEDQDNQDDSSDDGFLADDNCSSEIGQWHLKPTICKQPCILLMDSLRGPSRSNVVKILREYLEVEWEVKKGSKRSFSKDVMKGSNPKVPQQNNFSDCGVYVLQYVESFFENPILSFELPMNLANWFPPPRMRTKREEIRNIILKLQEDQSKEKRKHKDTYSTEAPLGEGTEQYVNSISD

[9] = target: T6, Sentrin-specific protease 8 (Homo sapiens, UniProt Q96LD8); assay type: functional;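 note: luminescence read-out of SENP8 inhibition, dose-response confirmation following an ultra-high-throughput screen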
T6 sequence (Q96LD8 whole entry): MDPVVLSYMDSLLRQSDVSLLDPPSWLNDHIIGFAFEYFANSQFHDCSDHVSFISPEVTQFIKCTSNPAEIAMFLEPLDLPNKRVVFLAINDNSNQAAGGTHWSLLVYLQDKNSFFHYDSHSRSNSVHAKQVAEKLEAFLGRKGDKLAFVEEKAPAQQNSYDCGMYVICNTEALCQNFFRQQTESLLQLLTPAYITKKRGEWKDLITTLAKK

[10] = HEK-293T viability loss after treatment – luminescence, T-cell screen hits, cytotoxicity control for TCR NF-kB inhibitor project, dose response (AID 489026); assay type: functional, cell-based;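 note: cells exposed to compound about 14 hours before the viability readout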
Nonstructural protein 1 = Nonstructural protein 1 (Influenza A virus, UniProt Q194T2); assay type: functional, Influenza A virus (A/California/07/2009(H1N1))
[11] = blockers of HIV-1 envelope-mediated cell-cell fusion – cherry-pick, dose response (AID 652057); assay type: functional, cell-based
[12] = viability loss in CEM21 cells – cell-based, CellTiter-Glo luminescence, cherry-picked, cytotoxicity control for viral fusion inhibitor project, dose response (AID 652042); assay type: functional;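 note: potency for signal decrease meaning cytotoxicity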
[13] = blockers of HIV-1 ZM109 envelope-driven cell-cell fusion – HeLa effector, CEM target cells, luciferase, cherry-pick, dose response (AID 652058); assay type: functional, cell-based;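 note: luciferase signal from HIV-1 Env mediated cell-cell fusion of effector and target cells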
[14] = off-target signal loss in HeLa-CEM21 co-culture – HeLa F-luc CTL cells, cherry-picked, counter-screen for HIV-1 Env fusion inhibitor project, dose response (AID 652040); assay type: functional, cell-based;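 note: potency for signal decrease marking cytotoxic or nonspecific inhibition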
[15] = HIV-1 AD8 envelope cell-cell fusion blockers – cherry-pick, dose response (AID 652062); assay type: functional, cell-based;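 note: luciferase signal from cell-cell fusion driven by HIV-1 clade B AD8 Env; potency is for inhibitors of fusion seen as a drop in luminescence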

NACHT, LRR and PYD domains-containing protein 3, sequence (Q96P20 whole entry, the tested form may be a part): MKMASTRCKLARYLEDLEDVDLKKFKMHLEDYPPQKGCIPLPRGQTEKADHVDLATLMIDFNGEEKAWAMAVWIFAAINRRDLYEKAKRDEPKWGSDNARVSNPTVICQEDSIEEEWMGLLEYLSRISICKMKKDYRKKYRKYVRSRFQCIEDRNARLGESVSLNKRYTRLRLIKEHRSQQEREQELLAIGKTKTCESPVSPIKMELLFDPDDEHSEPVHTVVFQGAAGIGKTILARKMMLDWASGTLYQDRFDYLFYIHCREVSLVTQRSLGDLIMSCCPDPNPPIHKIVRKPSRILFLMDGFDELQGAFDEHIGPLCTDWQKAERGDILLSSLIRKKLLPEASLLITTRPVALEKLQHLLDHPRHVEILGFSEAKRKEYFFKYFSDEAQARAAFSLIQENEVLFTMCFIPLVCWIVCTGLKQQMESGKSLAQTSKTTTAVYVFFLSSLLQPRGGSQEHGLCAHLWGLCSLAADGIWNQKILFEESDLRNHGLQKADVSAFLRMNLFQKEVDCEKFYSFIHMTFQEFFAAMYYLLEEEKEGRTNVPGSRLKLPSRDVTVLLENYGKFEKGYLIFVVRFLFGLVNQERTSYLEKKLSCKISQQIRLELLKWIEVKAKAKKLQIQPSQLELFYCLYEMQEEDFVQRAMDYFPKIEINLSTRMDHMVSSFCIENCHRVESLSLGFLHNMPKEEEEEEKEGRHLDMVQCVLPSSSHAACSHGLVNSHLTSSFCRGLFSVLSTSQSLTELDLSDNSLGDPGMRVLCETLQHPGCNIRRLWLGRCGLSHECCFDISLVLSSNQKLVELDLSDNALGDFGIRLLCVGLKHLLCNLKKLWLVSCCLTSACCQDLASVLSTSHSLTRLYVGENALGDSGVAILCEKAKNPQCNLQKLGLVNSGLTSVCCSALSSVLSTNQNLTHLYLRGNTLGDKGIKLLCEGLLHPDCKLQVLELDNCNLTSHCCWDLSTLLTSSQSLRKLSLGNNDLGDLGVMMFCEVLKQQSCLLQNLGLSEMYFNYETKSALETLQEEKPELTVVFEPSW
Female germline-specific tumor suppressor gld-1, sequence (Q17339 whole entry, the tested form may be a part): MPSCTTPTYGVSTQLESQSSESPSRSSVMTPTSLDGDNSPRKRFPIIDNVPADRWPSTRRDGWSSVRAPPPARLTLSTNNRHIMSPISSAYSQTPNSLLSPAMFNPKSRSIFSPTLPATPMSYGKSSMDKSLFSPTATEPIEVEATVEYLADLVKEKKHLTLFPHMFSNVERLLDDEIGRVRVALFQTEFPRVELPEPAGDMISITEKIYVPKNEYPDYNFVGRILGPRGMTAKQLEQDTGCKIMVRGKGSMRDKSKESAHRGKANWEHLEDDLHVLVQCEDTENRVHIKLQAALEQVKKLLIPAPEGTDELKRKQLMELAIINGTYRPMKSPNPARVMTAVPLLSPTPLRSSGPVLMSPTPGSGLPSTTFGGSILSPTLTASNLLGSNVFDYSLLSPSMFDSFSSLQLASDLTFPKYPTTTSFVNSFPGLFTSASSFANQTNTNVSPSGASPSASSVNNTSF
Nonstructural protein 1, sequence (Q194T2 whole entry, the tested form may be a part): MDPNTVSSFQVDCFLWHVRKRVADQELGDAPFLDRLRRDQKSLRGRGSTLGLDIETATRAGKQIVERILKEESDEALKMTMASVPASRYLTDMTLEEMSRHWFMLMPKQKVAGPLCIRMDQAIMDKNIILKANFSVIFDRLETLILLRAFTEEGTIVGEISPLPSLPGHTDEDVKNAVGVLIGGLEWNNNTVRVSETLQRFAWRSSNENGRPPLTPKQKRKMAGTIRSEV
Induced myeloid leukemia cell differentiation protein Mcl-1, sequence (Q07820 whole entry): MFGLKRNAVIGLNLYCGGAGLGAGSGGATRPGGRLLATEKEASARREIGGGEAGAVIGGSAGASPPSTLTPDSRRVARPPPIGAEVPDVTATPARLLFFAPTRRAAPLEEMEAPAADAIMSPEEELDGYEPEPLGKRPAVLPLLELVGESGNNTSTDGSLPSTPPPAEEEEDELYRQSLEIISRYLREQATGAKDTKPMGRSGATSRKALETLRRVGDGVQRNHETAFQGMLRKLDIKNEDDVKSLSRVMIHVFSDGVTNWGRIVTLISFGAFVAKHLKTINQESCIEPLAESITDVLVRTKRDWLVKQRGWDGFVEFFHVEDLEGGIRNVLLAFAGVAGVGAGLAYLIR
Protein Rev, sequence (P04618 whole entry): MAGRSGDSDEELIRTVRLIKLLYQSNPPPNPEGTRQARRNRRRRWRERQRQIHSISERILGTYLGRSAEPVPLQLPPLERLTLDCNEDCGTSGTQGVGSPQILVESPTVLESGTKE

Compound	IC50 (Protein Rev)	IC50 [1]	EC50 [2]	EC50 [3]	IC50 [4]	EC50 [5]	EC50 (H4)	IC50 [6]	IC50 (Caspase-3)	IC50 [7]	IC50 [8]	IC50 [9]	IC50 [10]	IC50 (Nonstructural protein 1)	AC50 [11]	AC50 [12]	AC50 [13]	AC50 [14]	AC50 [15]
Nc1c(O)ccc2c1C(=O)c1ccccc1C2=O	> 75.4 µM (not active)	4.15 µM (active)	> 300 µM (not active)	10.4 µM (active)	3.66 µM (not active)														
CCCC1CCC(c2ccc(OCC)cc2)=CC1=O (stereo not given)						0.126 µM (active)	20.7 µM (inconclusive)	53.9 µM (active)	21.3 µM (active)	10.1 µM (active)	29.6 µM (active)	40.2 µM (active)							
CCN(CC)c1ccc2nc3ccc(N)cc3[n+](-c3ccccc3)c2c1								4.79 µM (active)					67.7 µM (inactive)	8.47 µM (active)	3.78 µM (active)	3.25 µM (active)	1.28 µM (active)	1.41 µM (active)	3.84 µM (active)

— ChEMBL document CHEMBL1201862, “PubChem BioAssay data set” (2004)
